Among the data in paper PMC8987054, “Structural basis for PoxtA-mediated resistance to phenicol and oxazolidinone antibiotics” (Nature Communications, 2022) are MIC values, retold here.

The structures appear in SMILES notation. ≈ marks a conversion by molar mass, not a printed value. Like-named read-outs stand apart in the source and are kept apart here.

The test system of experiment [1] is T1, E. faecium 9-F-6.
T1 construct: 9-F-6 (ST872)
The experiment is described as follows: microbe, parasite or virus in culture. More on the design: Broth microdilution MIC, EUENCF Sensititre plate, multidrug-resistant clinical isolate. The note with it: Enterococcus faecium, 9F6, read-out: MIC BMD. An excerpt:
(§1) ST872 is a single locus variant of ST80 which is a pandemic hospital-adapted genetic lineage. […] The results (MICs) were interpreted according to EUCAST clinical breakpoints v.

Experiment [2] deals with T1, E. faecium 9-F-6. Description: microbe, parasite or virus in culture. More on the design: Gradient test MIC (MIC Test Strip, Liofilchem), multidrug-resistant clinical isolate. Particulars: Enterococcus faecium, 9F6, read-out: MIC GRAD.
Text: as §1

In the case of `CN(C)c1cc(NC(=O)CNC(C)(C)C)c(O)c2c1C[C@H]1C[C@H]3[C@H](N(C)C)C(O)=C(C(N)=O)C(=O)[C@@]3(O)C(O)=C1C2=O` [Tigecycline], the MIC in experiment [1] is 0.12 µg/mL (≈ 0.205 µM).
For `CN[C@@H]1[C@H](O[C@H]2[C@H](O[C@H]3[C@H](O)[C@@H](O)[C@H](N=C(N)N)[C@@H](O)[C@@H]3N=C(N)N)O[C@@H](C)[C@]2(O)C=O)O[C@@H](CO)[C@H](O)[C@H]1O` [Streptomycin], the MIC in experiment [1] was more than 1020 µg/mL.
Consider `CN[C@H](CC(C)C)C(=O)N[C@H]1C(=O)N[C@@H](CC(N)=O)C(=O)N[C@H]2C(=O)N[C@H]3C(=O)N[C@H](C(=O)N[C@H](C(=O)O)c4cc(O)cc(O)c4-c4cc3ccc4O)[C@H](O)c3ccc(c(Cl)c3)Oc3cc2cc(c3O[C@@H]2O[C@H](CO)[C@@H](O)[C@H](O)[C@H]2O[C@H]2C[C@](C)(N)[C@H](O)[C@H](C)O2)Oc2ccc(cc2Cl)[C@H]1O` [Vancomycin], for which the MIC in experiment [1] is more than 16 µg/mL; in experiment [2], more than 256 µg/mL.
As to `C[C@H]1COc2c(N3CCN(C)CC3)c(F)cc3c(=O)c(C(=O)O)cn1c23` [Levofloxacin], the MIC in experiment [1] was more than 16 µg/mL.
For `O=C(N[C@H](CO)[C@H](O)c1ccc([N+](=O)[O-])cc1)C(Cl)Cl` [Chloramphenicol], the MIC in experiment [2] was found to be 16 µg/mL (≈ 49.5 µM).
`CC(=O)NC[C@H]1CN(c2ccc(N3CCOCC3)c(F)c2)C(=O)O1` [Linezolid]: the MIC in experiment [1] came to 8 µg/mL (≈ 23.7 µM).
As for `CC1(C)S[C@@H]2[C@H](NC(=O)[C@H](N)c3ccccc3)C(=O)N2[C@H]1C(=O)O` [Ampicillin], the MIC was more than 32 µg/mL in experiment [1] and more than 256 µg/mL in experiment [2].
With `C[C@@H](O)[C@H]1C(=O)N2C(C(=O)O)=C(SCCNC=N)C[C@H]12` [Imipenem], in experiment [1], the MIC was more than 16 µg/mL.
Take `CC1(C)S[C@@H]2[C@H](NC(=O)[C@H](N)c3ccc(O)cc3)C(=O)N2[C@H]1C(=O)O` [Amoxicillin]: the MIC in experiment [1] was more than 32 µg/mL.
`CCC[C@@H]1C[C@@H](C(=O)N[C@@H]([C@H]2O[C@H](SC)[C@H](O)[C@@H](O)[C@H]2O)[C@H](C)Cl)N(C)C1` [Clindamycin]: in experiment [2], the MIC was more than 256 µg/mL.
`CNC(C)[C@@H]1CC[C@@H](N)[C@@H](O[C@H]2[C@H](O)[C@@H](O[C@H]3OC[C@](C)(O)[C@H](NC)[C@H]3O)[C@H](N)C[C@@H]2N)O1` (some centres unmarked) [Gentamicin]: the MIC in experiment [1] is more than 256 µg/mL; in experiment [2], more than 1020 µg/mL.
